# Patent US6737383B1, “Herbicidal oxadiazolidines” (priority 1999, dated 2004)
# What was measured:
# wild oat = assay: Test B pre/postemergence wild oat; type: in vivo, Avena fatua
# In short: (§1)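 Herbicidal effect was estimated by eye on a ten-point control scale after plants spent twelve to sixteen days in a greenhouse following soil or foliar treatment. Foliar sprays targeted plants at one to four leaves; all doses were formulated in a non-phytotoxic solvent with surfactant.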
# soybean = assay: Test B pre/postemergence soybean; type: in vivo, Glycine max
# In short: as §1
# crabgrass = assay: Test B pre/postemergence crabgrass; type: in vivo, Digitaria sanguinalis
# In short: as §1
# bedstraw = assay: Test B pre/postemergence bedstraw; type: in vivo, Galium aparine
# In short: as §1
# corn = assay: Test B pre/postemergence corn; type: in vivo, Zea mays
# In short: as §1
# rape = assay: Test B pre/postemergence rape; type: in vivo, Brassica napus
# In short: as §1
# wheat = assay: Test B pre/postemergence wheat; type: in vivo, Triticum aestivum
# In short: as §1
# pigweed = assay: Test B pre/postemergence pigweed; type: in vivo, Amaranthus retroflexus
# In short: as §1
# purple nutsedge = assay: Test B pre/postemergence purple nutsedge; type: in vivo, Cyperus rotundus
# In short: as §1
# morningglory = assay: Test B pre/postemergence morningglory; type: in vivo, Ipomoea hederacea
# In short: as §1
# blackgrass = assay: Test B pre/postemergence blackgrass; type: in vivo, Alopecurus myosuroides
# In short: as §1
# cocklebur = assay: Test B pre/postemergence cocklebur; type: in vivo, Xanthium strumarium
# In short: as §1
# giant foxtail = assay: Test B pre/postemergence giant foxtail; type: in vivo, Setaria faberii
# In short: as §1
# surinam grass = assay: Test B pre/postemergence surinam grass; type: in vivo, Brachiaria decumbens
# In short: as §1
# velvetleaf = assay: Test B pre/postemergence velvetleaf; type: in vivo, Abutilon theophrasti
# In short: as §1
# [1] = Postemergence, Rate 125 g/ha, scale of 0 to 10 where 0 is no effect and 10 is complete control
# [2] = Preemergence, Rate 62 g/ha, scale 0 to 10 (0 no effect, 10 complete control)
# [3] = Preemergence, Rate 125 g/ha, 0 is no effect, 10 is complete control
# [4] = Preemergence, Rate 250 g/ha, scale 0 to 10, 0 is no effect, 10 is complete control
# [5] = Preemergence, Rate 500 g/ha, scale 0 to 10 (0 no effect, 10 complete control)
# [6] = Rate 62 g/ha, Postemergence, scale of 0 to 10 where 0 is no effect and 10 is complete control
# [7] = Rate 250 g/ha, Postemergence, scale 0 to 10, 0 is no effect, 10 is complete control
# [8] = Rate 500 g/ha, Postemergence, scale 0 to 10
smiles,measurement,setting,value
CCCn1c(=O)on(C(=O)N(c2ccc(F)cc2F)C(C)C)c1=O [Compound 130],Wild oats plant response rating,wild oat; [1],2
same,Wild oats plant response rating,wild oat; [2],7
same,Wild oats plant response rating (0 to 10 scale),wild oat; [3],8
same,Wild oats plant response rating,wild oat; [4],10
same,Wild oats plant response rating,wild oat; [5],10
same,Wild oats plant response rating,wild oat; [6],0
same,"Plant response rating, Wild oats",wild oat; [7],5
same,Wild oats plant response rating,wild oat; [8],8
same,Soybean plant response rating,soybean; [1],2
same,Soybean plant response rating,soybean; [2],0
same,Soybean plant response rating (0 to 10 scale),soybean; [3],0
same,Soybean plant response rating,soybean; [4],3
same,Soybean plant response rating,soybean; [5],4
same,Soybean plant response rating,soybean; [6],1
same,"Plant response rating, Soybean",soybean; [7],3
same,Soybean plant response rating,soybean; [8],5
same,Crabgrass plant response rating,crabgrass; [1],9
same,Crabgrass plant response rating,crabgrass; [2],6
same,Crabgrass plant response rating (0 to 10 scale),crabgrass; [3],9
same,Crabgrass plant response rating,crabgrass; [4],9
same,Crabgrass plant response rating,crabgrass; [5],10
same,Crabgrass plant response rating,crabgrass; [6],5
same,"Plant response rating, Crabgrass",crabgrass; [7],9
same,Crabgrass plant response rating,crabgrass; [8],9
same,Bedstraw plant response rating,bedstraw; [2],0
same,Bedstraw plant response rating (0 to 10 scale),bedstraw; [3],0
same,Bedstraw plant response rating,bedstraw; [4],2
same,Bedstraw plant response rating,bedstraw; [5],10
same,Bedstraw plant response rating,bedstraw; [6],0
same,"Plant response rating, Bedstraw",bedstraw; [7],6
same,Bedstraw plant response rating,"bedstraw; Rate 500 g/ha, Postemergence, scale 0 to 10, 0 no effect, 10 complete control",8
same,Corn plant response rating,corn; [1],0
same,Corn plant response rating,corn; [2],3
same,Corn plant response rating (0 to 10 scale),corn; [3],3
same,Corn plant response rating,corn; [4],6
same,Corn plant response rating,corn; [5],6
same,Corn plant response rating,corn; [6],0
same,"Plant response rating, Corn",corn; [7],2
same,Corn plant response rating,corn; [8],3
same,Rape plant response rating,rape; [1],2
same,Rape plant response rating,rape; [2],4
same,Rape plant response rating (0 to 10 scale),rape; [3],9
same,Rape plant response rating,rape; [4],10
same,Rape plant response rating,rape; [5],10
same,Rape plant response rating,rape; [6],0
same,Rape plant response rating,rape; [8],2
same,Wheat plant response rating,wheat; [1],1
same,Wheat plant response rating,wheat; [2],2
same,Wheat plant response rating (0 to 10 scale),wheat; [3],3
same,Wheat plant response rating,wheat; [5],4
same,Wheat plant response rating,wheat; [6],0
same,"Plant response rating, Wheat",wheat; [7],3
same,Wheat plant response rating,wheat; [8],8
same,Redroot pigweed plant response rating,pigweed; [1],3
same,Redroot pigweed plant response rating,pigweed; [2],6
same,Redroot pigweed plant response rating (0 to 10 scale),pigweed; [3],10
same,Redroot pigweed plant response rating,pigweed; [4],10
same,Redroot pigweed plant response rating,pigweed; [5],10
same,Redroot pigweed plant response rating,pigweed; [6],0
same,"Plant response rating, Redroot pigweed",pigweed; [7],3
same,Redroot pigweed plant response rating,pigweed; [8],6
same,Nutsedge plant response rating,purple nutsedge; [1],0
same,Nutsedge plant response rating,purple nutsedge; [2],0
same,Nutsedge plant response rating (0 to 10 scale),purple nutsedge; [3],0
same,Nutsedge plant response rating,purple nutsedge; [4],0
same,Nutsedge plant response rating,purple nutsedge; [5],3
same,Nutsedge plant response rating,purple nutsedge; [6],0
same,"Plant response rating, Nutsedge",purple nutsedge; [7],0
same,Nutsedge plant response rating,purple nutsedge; [8],0
same,Morningglory plant response rating,morningglory; [1],2
same,Morningglory plant response rating,morningglory; [2],0
same,Morningglory plant response rating (0 to 10 scale),morningglory; [3],0
same,Morningglory plant response rating,morningglory; [4],3
same,Morningglory plant response rating,morningglory; [5],4
same,Morningglory plant response rating,morningglory; [6],2
same,"Plant response rating, Morningglory",morningglory; [7],2
same,Morningglory plant response rating,morningglory; [8],3
same,Blackgrass plant response rating,blackgrass; [1],5
same,Blackgrass plant response rating,blackgrass; [2],5
same,Blackgrass plant response rating (0 to 10 scale),blackgrass; [3],9
same,Blackgrass plant response rating,blackgrass; [4],9
same,Blackgrass plant response rating,blackgrass; [5],10
same,Blackgrass plant response rating,blackgrass; [6],3
same,"Plant response rating, Blackgrass",blackgrass; [7],7
same,Blackgrass plant response rating,blackgrass; [8],8
same,Cocklebur plant response rating,cocklebur; [1],0
same,Cocklebur plant response rating,cocklebur; [2],0
same,Cocklebur plant response rating (0 to 10 scale),cocklebur; [3],0
same,Cocklebur plant response rating,cocklebur; [4],0
same,Cocklebur plant response rating,cocklebur; [5],0
same,Cocklebur plant response rating,cocklebur; [6],0
same,"Plant response rating, Cocklebur",cocklebur; [7],0
same,Cocklebur plant response rating,cocklebur; [8],3
same,Giant foxtail plant response rating,giant foxtail; [1],9
same,Giant foxtail plant response rating,giant foxtail; [2],7
same,Giant foxtail plant response rating (0 to 10 scale),giant foxtail; [3],9
same,Giant foxtail plant response rating,giant foxtail; [4],10
same,Giant foxtail plant response rating,giant foxtail; [5],10
same,Giant foxtail plant response rating,giant foxtail; [6],8
same,"Plant response rating, Giant foxtail",giant foxtail; [7],9
same,Giant foxtail plant response rating,giant foxtail; [8],9
same,B. signalgrass plant response rating,surinam grass; [1],2
same,B. signalgrass plant response rating,surinam grass; [2],6
same,B. signalgrass plant response rating (0 to 10 scale),surinam grass; [3],9
same,B. signalgrass plant response rating,surinam grass; [4],9
same,B. signalgrass plant response rating,surinam grass; [5],9
same,B. signalgrass plant response rating,surinam grass; [6],1
same,"Plant response rating, B. signalgrass",surinam grass; [7],7
same,B. signalgrass plant response rating,"surinam grass; Rate 500 g/ha, Postemergence, scale of 0 to 10 where 0 is no effect and 10 is complete control",8
same,Velvetleaf plant response rating,velvetleaf; [1],3
same,Velvetleaf plant response rating,velvetleaf; [2],5
same,Velvetleaf plant response rating (0 to 10 scale),velvetleaf; [3],8
same,Velvetleaf plant response rating,velvetleaf; [4],8
same,Velvetleaf plant response rating,velvetleaf; [5],10
same,Velvetleaf plant response rating,velvetleaf; [6],0
same,"Plant response rating, Velvetleaf",velvetleaf; [7],5
same,Velvetleaf plant response rating,velvetleaf; [8],5
